Assay results: PMC6008465 (British Journal of Cancer, 2018)
Marks after values point to notes of the source that are not given here.

Test system: advanced solid tumours
Experiment: Part A tumour response (RECIST 1.0)
Format: in vivo, human
Method: The primary objectives of this phase 1 study were to evaluate the safety, tolerability, and MTD of once-weekly (Schedule I) and twice-weekly (Schedule II) dosing. […] Toxicity was managed by dose interruption, reduction, and/or discontinuation. Only Cycle 1 adverse events (AEs) were evaluable as DLTs. […] All ongoing patients could continue at 320 mg/m^2, regardless of initial starting dose.
Efficacy was assessed by tumour response determined by investigator review of computed tomography/magnetic resonance imaging scans using Response Evaluation Criteria in Solid tumours version 1.0 (RECIST).[17]

Which results are given for `CCNc1cc(O)c2c(c1)/C=C/C[C@H](O)[C@H](O)C(=O)/C=C\[C@@H](C)[C@H](C)OC2=O` [E6201, (3S,4R,5Z,8S,9S,11E)-14-(ethylamino)-8,9,16-trihydroxy-3,4-dimethyl-3,4,9,19-tetrahydro-1H-2-benzoxacyclotetradecine-1,7 (8H)-dione]?
Best overall response: Complete response (CR) (20 mg/m^2 (n=4)): 0 n (%); Best overall response: Not evaluable (NE) (20 mg/m^2 (n=4)): 0 n (%); Best overall response: Partial response (PR) (20 mg/m^2 (n=4)): 0 n (%); Best overall response: Progressive disease (PD) (20 mg/m^2 (n=4)): 3 (75.0) n (%); Disease control rate (CR+PR+SD) (20 mg/m^2 (n=4)): 1 (25.0) n (%); Overall response rate (CR+PR) (20 mg/m^2 (n=4)): 0 n (%); Best overall response: Complete response (CR) (40 mg/m^2 (n=3)): 0 n (%); Best overall response: Not evaluable (NE) (40 mg/m^2 (n=3)): 0 n (%); Best overall response: Partial response (PR) (40 mg/m^2 (n=3)): 0 n (%); Best overall response: Progressive disease (PD) (40 mg/m^2 (n=3)): 1 (33.3) n (%); Disease control rate (CR+PR+SD) (40 mg/m^2 (n=3)): 2 (66.7) n (%); Overall response rate (CR+PR) (40 mg/m^2 (n=3)): 0 n (%); Duration of SD (40 mg/m^2, patient with biliary duct cancer (BRAF-WT)): 4 cycles; Duration of SD (40 mg/m^2, patient with colon cancer (BRAF-WT)): 6 cycles; Best overall response: Complete response (CR) (80 mg/m^2 (n=3)): 0 n (%); Best overall response: Not evaluable (NE) (80 mg/m^2 (n=3)): 0 n (%); Best overall response: Partial response (PR) (80 mg/m^2 (n=3)): 0 n (%); Best overall response: Progressive disease (PD) (80 mg/m^2 (n=3)): 2 (66.7) n (%); Disease control rate (CR+PR+SD) (80 mg/m^2 (n=3)): 1 (33.3) n (%); Overall response rate (CR+PR) (80 mg/m^2 (n=3)): 0 n (%); Duration of SD (80 mg/m^2, patient with BRAF-WT uveal melanoma): 15 cycles; Best overall response: Complete response (CR) (160 mg/m^2 (n=3)): 0 n (%); Best overall response: Not evaluable (NE) (160 mg/m^2 (n=3)): 1 (33.3) n (%); Best overall response: Partial response (PR) (160 mg/m^2 (n=3)): 0 n (%); Best overall response: Progressive disease (PD) (160 mg/m^2 (n=3)): 2 (66.7) n (%); Disease control rate (CR+PR+SD) (160 mg/m^2 (n=3)): 0 n (%); Overall response rate (CR+PR) (160 mg/m^2 (n=3)): 0 n (%); Best overall response: Complete response (CR) (320 mg/m^2 (n=7)): 0 n (%); Best overall response: Not evaluable (NE) (320 mg/m^2 (n=7)): 1 (14.3) n (%); Best overall response: Partial response (PR) (320 mg/m^2 (n=7)): 0 n (%); Best overall response: Progressive disease (PD) (320 mg/m^2 (n=7)): 4 (57.1) n (%); Disease control rate (CR+PR+SD) (320 mg/m^2 (n=7)): 1 (14.3) n (%); Overall response rate (CR+PR) (320 mg/m^2 (n=7)): 0 n (%); Best overall response: Complete response (CR) (400 mg/m^2 (n=1)): 0 n (%); Best overall response: Not evaluable (NE) (400 mg/m^2 (n=1)): 0 n (%); Best overall response: Partial response (PR) (400 mg/m^2 (n=1)): 0 n (%); Best overall response: Progressive disease (PD) (400 mg/m^2 (n=1)): 0 n (%); Disease control rate (CR+PR+SD) (400 mg/m^2 (n=1)): 1 (100) n (%); Overall response rate (CR+PR) (400 mg/m^2 (n=1)): 0 n (%); Duration of SD (400 mg/m^2, patient with gastric carcinoid (BRAF status unknown)): 4 cycles; Best overall response: Complete response (CR) (480 mg/m^2 (n=4)): 0 n (%); Best overall response: Not evaluable (NE) (480 mg/m^2 (n=4)): 0 n (%); Best overall response: Partial response (PR) (480 mg/m^2 (n=4)): 1 (25.0)^a n (%); Best overall response: Progressive disease (PD) (480 mg/m^2 (n=4)): 0 n (%); Disease control rate (CR+PR+SD) (480 mg/m^2 (n=4)): 3 (75.0) n (%); Overall response rate (CR+PR) (480 mg/m^2 (n=4)): 1 (25.0) n (%); Duration of SD (480 mg/m^2, patient with papillary thyroid cancer (BRAF-WT)): 4 cycles; Duration of partial response (BRAF-mutated papillary thyroid cancer patient, 480 mg/m^2): 4 cycles; Best overall response: Complete response (CR) (Total (N=25)): 0 n (%); Best overall response: Not evaluable (NE) (Total (N=25)): 2 (8.0) n (%); Best overall response: Partial response (PR) (Total (N=25)): 1 (4.0) n (%); Best overall response: Progressive disease (PD) (Total (N=25)): 12 (48.0) n (%); Disease control rate (CR+PR+SD) (Total (N=25)): 9 (36.0) n (%); Overall response rate (CR+PR) (Total (N=25)): 1 (4.0) n (%); Number of partial responses (PR) (V600E BRAF-mutated papillary thyroid cancer, 480 mg/m^2 qw): One; Patients with SD for ≥4 cycles (3.7 months) (five patients): 20.0%
